Each structure is given as a SMILES string. pIC50: −log10 of the molar value.

The nature of this experiment: PRMT5 assay: Compounds were solubilized in DMSO and serially diluted, using 3-fold dilutions, into 100% DMSO at a concentration 50-fold greater than the desired assay concentration. Following dilution, 1 ul was added to an empty 96-well microtiter plate. PRMT5/MEP50 protein complex was combined with H4(1-21) peptide ([…]) in PRMT5 assay buffer (50 mM Tris pH 8.5, 50 mM NaCl, 5 mM MgCl2, 1 mM EDTA, 1 mM TCEP) and 44 ul was added to the microtiter plate containing compound. S-Adenosyl-L-methionine (SAM) was prepared by combining 3H labelled SAM with unlabelled SAM in PRMT5 assay buffer such that the final SAM concentration was 10 uM and the specific activity was 0.2 uCi/ul. The reaction was initiated by adding 5 ul of SAM stock to the microtiter plate. The final reaction conditions were 10 nM PRMT5/MEP50 complex, 200 nM peptide and 1 uM SAM. Following a 25 minute incubation at room temperature, the reaction was stopped with the addition of 100 uL of 20% TCA. The 3H-peptide product was captured using a 96-well filter plate (MSIPN4B, Millipore) and washed 5 times with PBS buffer. Scintillation fluid (100 ul) was added to the dried filter plate and counted in a liquid scintillation counter. IC50 values were determined by fitting the data to the standard 4-parameter dose response equation using Pfizer proprietary software.
A word on the pIC50: it is −log10 of the IC50, conventionally taken in molar units. With `Cc1ncnc2c1ccn2[C@@H]1O[C@@H](C(C)O)[C@H]2OC(C)(C)O[C@H]21` (some centres undefined), the pIC50 was 5.76.

As to `Cc1ncnc2c1ccn2[C@@H]1O[C@H]([C@H](O)c2ccc3ccn(C)c3c2)[C@@H](O)[C@H]1O`, the pIC50 is 8.00.

On to `Cc1ncnc2c1ccn2[C@@H]1O[C@@H](C(C)(C)O)[C@H]2OC(C)(C)O[C@H]21`, for which the pIC50 is 5.49.

Take `Cc1ncnc2c1ccn2[C@@H]1O[C@H]([C@@H](O)c2cccc(F)c2)[C@@H](O)[C@H]1O`: the pIC50 was 5.58.
